Data reported in patent publication US8669271B2 (Boehringer Ingelheim International GmbH, priority 2010, dated 2014).

Molecular target: T1, human GPR119 (Homo sapiens, UniProt Q8TDV5)
T1 construct: expression vector for human GPR119 cDNA (Acc. No. NP_848566); expressed in transfected cells
T1 sequence (Q8TDV5 1-335): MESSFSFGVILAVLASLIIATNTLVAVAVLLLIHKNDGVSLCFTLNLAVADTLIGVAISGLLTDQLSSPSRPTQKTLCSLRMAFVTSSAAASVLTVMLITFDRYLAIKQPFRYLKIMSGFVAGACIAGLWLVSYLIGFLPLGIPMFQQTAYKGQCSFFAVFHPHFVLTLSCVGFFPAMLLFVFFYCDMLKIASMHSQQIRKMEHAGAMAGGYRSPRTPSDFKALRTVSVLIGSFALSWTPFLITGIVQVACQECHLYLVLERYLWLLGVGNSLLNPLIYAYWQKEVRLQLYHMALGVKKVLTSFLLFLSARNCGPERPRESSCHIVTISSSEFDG
Experiment: AlphaScreen cAMP assay in Min-6/hGPR119 cells (activation of GPR119, intracellular cAMP)
Type: cell-based
Settings: MIN6 cells stably transfected with human GPR119; cAMP by AlphaScreen after 45 minutes incubation at room temperature
Procedure: The compounds of formula I according to the invention modulate the activity of the G-protein-coupled receptor GPR119. The effect of the compounds on the activation of GPR119 and on the stimulation of intracellular cAMP concentration is determined using the AlphaScreen cAMP Assay Kit (Cat.No.#6760625R) made by PerkinElmer.
MIN6 cells [Miyazaki J et al. Endocrinology. 1990 July; 127(1):126-32] are stably transfected with an expression vector for human GPR119 cDNA (Acc. No. NP_848566). Min-6/hGPR119 cells are cultured in DMEM, 10% FBS, 50 μM β-mercaptoethanol, 0.3 mg/mL Geniticin, 2 mM GlutaMAX at 37° C. 5% CO2. For the assay, the cells are seeded in Optiplates (white, 384-well, 160W— barcoded, TC, sterile with lid, Cat.No.#6007688 (Perkin Elmer); 10000 cells/well; 50 μl). The plates covered with lids are then incubated for 24 hours at 37° C./5% CO2. After the medium is aspirated from the wells completely, 10 μl of the test compound are added, the compounds are diluted using stimulating buffer (140 mM NaCl, 3.6 mM KCl, 0.5 mM NaH2PO4, 0.5 mM MgSO4, 1.5 mM CaCl2, 10 mM Hepes, 5 mM NaHCO3; pH 7.4. 0.5 mM IBMX and 0.1% BSA, the final DMSO concentration is 1%). After 45 minutes incubation at room temperature (approx. 20° C.), the cAMP concentrations are determined using the AlphaScreen cAMP Assay Kit (Cat.No.#6760625R from PerkinElmer).

| SMILES | EC50 [nM] |
| --- | --- |
| CC(C)(C)OC(=O)N1CCC([C@H]2Cc3nc(-c4ccc(S(C)(=O)=O)cc4)ncc3O2)CC1 [Example 74, (R)-4-[2-(4-Methanesulfonyl-phenyl)-6,7-dihydro-furo[3,2-d]pyrimidin-6-yl]-piperidine-1-carboxylic acid tert-butyl ester] | 218 |
| CC(C)OC(=O)N1CCC(C2Cc3cc(-c4ccc(CC(=O)N(C)C5CCCOC5)cc4)ccc3O2)CC1 (stereo not drawn) [Example 140] | 63 |
| CC(C)(C)OC(=O)N1CCC(C2Cc3cc(-c4cnco4)ncc3O2)CC1 (stereo not drawn) [Example 39, 4-(5-Oxazol-5-yl-2,3-dihydro-furo[2,3-c]pyridin-2-yl)-piperidine-1-carboxylic acid tert-butyl ester] | 152 |
| CC(C)OC(=O)N1CCC(C2Cc3cc(-c4ccc(C(=O)N(C)C5CCCOC5)cc4)ccc3O2)CC1 (stereo not drawn) [Example 139] | 52 |
| CC(C)(C)OC(=O)N1CCC(C2Cc3cc(-c4ccncc4F)ncc3O2)CC1 (stereo not drawn) [Example 51, 4-[5-(3-Fluoro-pyridin-4-yl)-2,3-dihydro-furo[2,3-c]pyridin-2-yl]-piperidine-1-carboxylic acid tert-butyl ester] | 10 |
| CC(C)(C)OC(=O)N1CCC(C2Cc3cc(-c4ccc(S(C)(=O)=O)cc4)ncc3O2)CC1 (stereo not drawn) [Example 15, 4-[5-(4-Methanesulfonyl-phenyl)-2,3-dihydro-furo[2,3-c]pyridin-2-yl]-piperidine-1-carboxylic acid tert-butyl ester] | 9 |
| CC(C)OC(=O)N1CCC(C2Cc3cc(-c4ccc(C(=O)NCC(C)(C)CO)cc4)ccc3O2)CC1 (stereo not drawn) [Example 151] | 47 |
| CC(C)(C)OC(=O)N1CCC(C2Cc3cc(-c4cnco4)ccc3O2)CC1 (stereo not drawn) [Example 21, 4-(5-Oxazol-5-yl-2,3-dihydro-benzofuran-2-yl)-piperidine-1-carboxylic acid tert-butyl ester] | 77 |
| CC(C)(C)OC(=O)N1CCC(C2(C)Cc3cc(C4CCN(S(C)(=O)=O)CC4)ncc3O2)CC1 (stereo not drawn) [Example 81, 4-[5-(1-Methanesulfonyl-piperidin-4-yl)-2-methyl-2,3-dihydro-furo[2,3-c]pyridin-2-yl]-piperidine-1-carboxylic acid tert-butyl ester] | 53 |
| CC(C)OC(=O)N1CCC(C2Cc3cc(-c4ccncc4F)ccc3O2)CC1 (stereo not drawn) [Example 113] | 167 |
| CC(C)(C)OC(=O)N1CCC(C2Cc3cc(-c4ccc(S(C)(=O)=O)c(F)c4)ncc3O2)CC1 (stereo not drawn) [Example 34, 4-[5-(3-Fluoro-4-methanesulfonyl-phenyl)-2,3-dihydro-furo[2,3-c]pyridin-2-yl]-piperidine-1-carboxylic acid tert-butyl ester] | 9 |
| Cn1ccc(-c2cc3c(cn2)OC(C2CCN(C(=O)OC(C)(C)C)CC2)C3)cc1=O (stereo not drawn) [Example 57, 4-[5-(1-Methyl-2-oxo-1,2-dihydro-pyridin-4-yl)-2,3-dihydro-furo[2,3-c]pyridin-2-yl]-piperidine-1-carboxylic acid tert-butyl ester] | 685 |
| CC(C)OC(=O)N1CCC(C2Cc3cc(-c4ccc(C#N)s4)ccc3O2)CC1 (stereo not drawn) [Example 170] | 62 |
| CNC(=O)c1ccc(-c2cc3c(cn2)OC(C2CCN(C(=O)OC(C)(C)C)CC2)C3)c(F)c1 (stereo not drawn) [Example 27, 4-[5-(2-Fluoro-4-methylcarbamoyl-phenyl)-2,3-dihydro-furo[2,3-c]pyridin-2-yl]-piperidine-1-carboxylic acid tert-butyl ester] | 24 |
| CC(C)(C)OC(=O)N1CCC(C2(C)Cc3cc(-c4ccc(CS(C)(=O)=O)cc4)ncc3O2)CC1 (stereo not drawn) [Example 80, 4-[5-(4-Methanesulfonylmethyl-phenyl)-2-methyl-2,3-dihydro-furo[2,3-c]pyridin-2-yl]-piperidine-1-carboxylic acid tert-butyl ester] | 24 |
| COC(=O)c1ccc(-c2ccc3c(c2)CC(C2CCN(C(=O)OC(C)C)CC2)O3)cn1 (stereo not drawn) [Example 114] | 527 |
| CNS(=O)(=O)c1ccc(-c2cc3c(cn2)OC(C2CCN(C(=O)OC(C)(C)C)CC2)C3)cc1 (stereo not drawn) [Example 36, 4-[5-(4-Methylsulfamoyl-phenyl)-2,3-dihydro-furo[2,3-c]pyridin-2-yl]-piperidine-1-carboxylic acid tert-butyl ester] | 33 |
| CC(C)(C)OC(=O)N1CCC(C2(C)Cc3cc(N4CCN(S(C)(=O)=O)CC4)ncc3O2)CC1 (stereo not drawn) [Example 79, 4-[5-(4-Methanesulfonyl-piperazin-1-yl)-2-methyl-2,3-dihydro-furo[2,3-c]pyridin-2-yl]-piperidine-1-carboxylic acid tert-butyl ester] | 40 |
| CC(C)OC(=O)N1CCC(C2Cc3cc(-c4ccc(C(=O)N5CC(F)(F)C5)cc4)ccc3O2)CC1 (stereo not drawn) [Example 135] | 38 |
| CC(C)(C)OC(=O)N1CCC(C2Cc3cc(-c4ccc(C(N)=O)cc4F)ncc3O2)CC1 (stereo not drawn) [Example 26, 4-[5-(4-Carbamoyl-2-fluoro-phenyl)-2,3-dihydro-furo[2,3-c]pyridin-2-yl]-piperidine-1-carboxylic acid tert-butyl ester] | 88 |
| CC(C)(C)OC(=O)N1CCC(C2Cc3nc(-c4ccc(S(C)(=O)=O)cc4)ncc3O2)CC1 (stereo not drawn) [Example 22, 4-[2-(4-Methanesulfonyl-phenyl)-6,7-dihydro-furo[3,2-d]pyrimidin-6-yl]-piperidine-1-carboxylic acid tert-butyl ester] | 45 |
| Cc1cc(-c2ccc3c(c2)CC(C2CCN(C(=O)OC(C)C)CC2)O3)cnc1C#N (stereo not drawn) [Example 9, 4-[5-(6-Cyano-5-methyl-pyridin-3-yl)-2,3-dihydro-benzofuran-2-yl]-piperidine-1-carboxylic acid isopropyl ester] | 432 |
| CC(C)(C)OC(=O)N1CCC(C2Cc3nc(N4CCN(S(C)(=O)=O)CC4)ncc3O2)CC1 (stereo not drawn) [Example 91, 4-[2-(4-Methanesulfonyl-piperazin-1-yl)-6,7-dihydro-furo[3,2-d]pyrimidin-6-yl]-piperidine-1-carboxylic acid tert-butyl ester] | 603 |
| CC(C)OC(=O)N1CCC(C2Cc3cc(-c4ccc(C#N)c(F)c4)ccc3O2)CC1 (stereo not drawn) [Example 111] | 152 |
| CC(C)OC(=O)N1CCC(C2Cc3cc(-c4ccc(CN(C)S(C)(=O)=O)cc4)ccc3O2)CC1 (stereo not drawn) [Example 172] | 288 |
| CC(C)(C)OC(=O)N1CCC(C2Cc3cc(-c4ccc(C(N)=O)cn4)ccc3O2)CC1 (stereo not drawn) [Example 40, 4-[5-(5-Carbamoyl-pyridin-2-yl)-2,3-dihydro-benzofuran-2-yl]-piperidine-1-carboxylic acid tert-butyl ester] | 158 |
| CC(C)OC(=O)N1CCC(C2Cc3cc(-c4ccc(CC(=O)NCc5ccccn5)cc4)ccc3O2)CC1 (stereo not drawn) [Example 158] | 235 |
| CC(=O)Nc1ccc(-c2ccc3c(c2)CC(C2CCN(C(=O)OC(C)C)CC2)O3)nn1 (stereo not drawn) [Example 162, 4-[5-(6-Acetylamino-pyridazin-3-yl)-2,3-dihydro-benzofuran-2-yl]-piperidine-1-carboxylic acid isopropyl ester] | 483 |
| CC(C)OC(=O)N1CCC(C2Cc3cc(-c4ccc(C(=O)NCc5cocn5)cc4)ccc3O2)CC1 (stereo not drawn) [Example 141] | 40 |
| CNc1ncc(-c2ccc3c(c2)CC(C2CCN(C(=O)OC(C)C)CC2)O3)cn1 (stereo not drawn) [Example 174] | 610 |
